Data reported in US20240309360A1, “TRANS-ACTIVATORS AND METHODS AND USE THEREOF” (THE GOVERNING COUNCIL OF THE UNIVERSITY OF TORONTO, priority 2021, published 2024).

Tests used:
Format in all cases: cell-based, human
[1] = tested on: transcriptional activity of 83 transcriptional regulators on the EGFP reporter; test: Tethered reporter assays in the presence of inhibitors; conditions: for effect of inhibitor on activity of the activators: 100 nM flavopiridol, 300 nM JQ1, 1 μM A-485, 2.5 μM CX-4945, 3 μM AZ191, 100 μM ABA 48 hours; for effect of inhibitor on activity of NuA4 complex interactors: 1 μM A-485 or 300 nM JQ1, e.g; call rule not given here. JAZF1 and KLF6
Experimental: To functionally investigate the connection between transcriptional activators and co-factors, a panel of 83 robust activators was arrayed. Their activation potential was tested using the reporter assay, but now in the presence of small-molecule inhibitors targeting multiple transcriptional co-regulators. Three kinase inhibitors targeting transcriptional kinases (flavopiridol for CDK9, CX-4945 for casein kinase 2, and AZ191 for DYRK1A and DYRK1B), and two compounds inhibiting transcriptional co-factors (A-485 for CBP/p300, and JQ1 for BET family bromodomain proteins) were employed.
(§1) Arrayed recruitment assays. Reporter cells stably co-expressing ABI-dCas9 and TetO gRNA were seeded either on 48-well or 96-well plates (Sarstedt) to reach 50-70% confluency on the day of transfection. 150 ng of each construct to be tested was transfected with polyethylenimine (PEI) at a ratio of 0.6 μl reagent. The day after transfection, recruitment was induced by treatment with ABA (100 μM). […] Inhibitors were dissolved in DMSO to a stock concentration of 10 mM. The final concentrations used were 100 nM for flavopiridol, 300 nM for JQ1, 1 μM for A-485, 2.5 μM for CX-4945 and 3 μM for AZ191. All inhibitors were a kind gift from the Structural Genomics Consortium (SGC). 48 hours after induction, cells were dissociated and resuspended in flow buffer using a liquid handing robot (TECAN) and analyzed by LSR Fortessa (BD). Cells were gated on high EBFP2 and RFP as a measure of gRNA and transfection control, respectively. Flow cytometry data was analyzed using FlowJo (v10).

[2] = tested on: EGFP reporter (7×TetO array, basal CMV promoter) in HEK293T reporter cell line; test: TAD-seq pooled activation screen of 60-aa fragments fused to PYL1; conditions: for Hit high GFP: high GFP population (top 1%); for logFC high GFP / logFC medium GFP: log 2 fold change of counts, 100 μM ABA 48 hours; for logFC high GFP: sorted high GFP cells (top 1%) vs unsorted cells; for logFC medium GFP: sorted medium GFP cells (top 2-5%) vs unsorted cells; for Hit medium GFP: medium GFP population (top 2-5%)
Outline: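 60-aa tiles at 20-aa steps from 75 activator proteins, C-terminally fused to PYL1, lentivirally transduced at low MOI into reporter cells co-expressing ABI-dCas9 and promoter gRNA. Recruitment induced with 100 μM abscisic acid for 48 h (DMSO control). Top 1% and next 4% GFP cells sorted; fragments quantified by sequencing, two replicates.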

[3] = tested on: EGFP reporter (7×TetO array, basal CMV promoter) in HEK293T reporter cell line; test: Arrayed recruitment assay, PYL1 fusions individually recruited to reporter via ABI1-dCas9 with ABA; design: key to independently validated as transactivating fragment: Fragments marked with * were independently validated; conditions: for independently validated as transactivating fragment: fragment fused to PYL1, arrayed format
From the text: Treatment of cells with abscisic acid (ABA) induces an interaction between ABI1 and PYL1, thereby recruiting the potential transcriptional activator to a specific genomic locus defined by the guide RNA (gRNA). As a reporter, a HEK293T cell line that contains a stably integrated construct with a 7×TetO array and a basal CMV promoter driving the expression of EGFP was used (Gao et al., 2016). A monoclonal cell line that expresses ABI1-dCas9 and a single gRNA targeting TetO was generated by lentiviral infection.
as §1

[4] = tested on: EGFP reporter (TetO7) in HEK293T cells; test: Multi-TAD effectors fused to PYL1 recruited to EGFP reporter; conditions: PYL1 fusion, 1 μM abscisic acid, 24 or 48 hours
Experimental: Multiple TADs were fused together with PYL1 and tested for transcriptional activity using the PYL1-ABI EGFP reporter system described above. The following TAD fragments were used: CITED1-8 (SEQ ID NO: 47), CITED2-12 (SEQ ID NO: 49), C3orf62-12 (SEQ ID NO: 45), BRD8-25 (SEQ ID NO: 40), ZXDC-12 (SEQ ID NO: 97), KLF7-1 (SEQ ID NO: 72), ATXN7L3-1 (SEQ ID NO: 35), FAM90A1-20 (SEQ ID NO: 60), SPDYE4-3 (SEQ ID NO: 90), YAF2-7 (SEQ ID NO: 96).
Methods: Cells were seeded on 48-well plates. Next day, after cells were between 70-90% confluent, 250 ng of each construct was transfected in each well using (Thermo Fisher Scientific, 11668019) reagent. Each construct was either directly fused TagRFP either directly fused to each component or being co-expressed from the same plasmid was used as a measure of transfection. In each experiment, the same gate for RFP+ cells were used to control for the effect of each construct's expression levels on activity. EGFP reporter cells were expanded from a clonal line to control for level of ABI-dCas9 and gRNA targeting the TetO7 sites upstream of the promoter. For the CD133 induction experiment, a 293T cell line stably expressing ABI-dCas9 and a pool of 5 gRNAs targeting the promoter were used for all activators. CD133 antibody conjugated to APC (Miltenyi Biotec, 130-113-668) was used. […]

Row | Molecule | effect of inhibitor on activity of the activators [1] | Hit high GFP [2] | logFC high GFP [2] | logFC medium GFP [2] | Hit medium GFP [2] | independently validated as transactivating fragment [3] | also measured
1 | COc1cc(N2CCN(C)CC2)ccc1Nc1nccc(-c2cn(C)c3cnccc23)n1 [AZ191] | slightly attenuating the activity of most activators | – | – | – | – | – | effect of inhibitor on activity of DCAF7 and NCKIPSD ([1]; 3 μM AZ191): not affected
2 | CNC(=O)Nc1ccc2c(c1)CC[C@@]21OC(=O)N(CC(=O)N(Cc2ccc(F)cc2)[C@@H](C)C(F)(F)F)C1=O [Fragment A-485, A-485] | strongly affected the activity of some but not all transactivators | – | – | – | – | – | effect of inhibitor on activity of CBP/p300 non-interactors ([1]; 1 μM A-485): only one of the seven non-interactors was affected; effect of inhibitor on activity of KLF6 ([1]; 1 μM A-485): no effect; effect of inhibitor on activity of KLF15 ([1]; 1 μM A-485): inhibited the activity of KLF15; effect of inhibitor on activity of CBP/p300 interactors ([1]; 1 μM A-485, interactors by AP-MS and BioID): four of the six CBP/p300 interactors was significantly decreased; effect of inhibitor on activity of NuA4 complex interactors [1]: not significantly affected; sensitivity of C3orf62-Cterm and SRF-C3orf62 reporter activation to inhibitor ([1]; CBP/p300 inhibition): highly sensitive
3 | Cc1sc2c(c1C)C(c1ccc(Cl)cc1)=N[C@@H](CC(=O)OC(C)(C)C)c1nnc(C)n1-2 [JQ1] | increase in reporter gene activity | – | – | – | – | – | effect of inhibitor on activity of NuA4 complex interactors [1]: not affected
4 | CN1CC[C@H](c2c(O)cc(O)c3c(=O)cc(-c4ccccc4Cl)oc23)[C@H](O)C1 [flavopiridol] | nearly complete loss of activity of all activators | – | – | – | – | – | –
5 | SPDYE4-3: 60-aa TAD-seq fragment of SPDYE4; SPDYE4 activation domain (DPSPQPQSLGLKRKSEWSDESEEELEEELELERAPEPEDTWVVETLCGLKMKLKRKRASS; listed as Homo sapiens) | – | hit | 4.82 | 2.409 | hit | 3* | transcriptional activation of EGFP reporter by TAD fusions [4]: weak activity
6 | VP64: synthetic transactivator, four tandem copies of the viral VP16 transactivation motif (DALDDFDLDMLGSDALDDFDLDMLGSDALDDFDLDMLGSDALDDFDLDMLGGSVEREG; listed as Homo sapiens) [reference compound] | – | hit | 5.476 | 2.374 | – | – | enrichment compared to the unsorted fragment library ([2]; high GFP and medium GFP populations): enriched in the high GFP population but depleted in the medium GFP population; activation of the EGFP reporter when individually tested ([3]; PYL1 fusion, ABA 48 hours, flow cytometry): robust induction of GFP
7 | YAF2-7: 60-aa TAD-seq fragment of YAF2 (SHKKTRPRLKNVDRSSAQHLEVTVGDLTVIITDFKEKTKSPPASSAASADQHSQSGSSSD; listed as Homo sapiens) | – | hit | 4.987 | 1.828 | hit | YAF2-7* | –
8 | ZXDC-12: 60-aa TAD-seq fragment of ZXDC (SPAEQHGAQDTELSAGTGNFYLESGGSARTDYRAIQLAKEKKQRGAGSNAGASQSTQRKI; listed as Homo sapiens) | – | hit | 3.966 | 2.496 | hit | ZXDC-12* | –
